{"source": "paper PMC11562704", "about": "“Volatiles extracted from Melaleuca Rugulosa (Link) Craven leaves: comparative profiling, bioactivity screening, and metabolomic analysis” (BMC Complementary Medicine and Therapies, 2024)", "biological_target": "T1, Type 1 collagenase enzyme", "T1 construct": "gene colG; native collagenase preparation isolated from the bacterium; type 1 is normally a mixture of ColG and ColH", "assay": "FALGPA hydrolysis, ninhydrin absorbance at […] nm", "assay_type": "biochemical, Hathewaya histolytica", "conditions": "FALGPA substrate; 50 mM tricine pH 7.4; 37 °C; 20 min preincubation", "data": [{"compound": "O=C(O)CN(CCN(CC(=O)O)CC(=O)O)CC(=O)O", "note": "[EDTA]", "values": [{"measurement": "IC50 ± SD (inhibition percentage (IP) ± SD) / Anti-collagenase", "result": "315.12 ± 2.21", "unit": "µg/mL"}]}]}
